Key:
Assay in all cases: relative viability (nuclei count vs DMSO), 5 days (fraction); higher = more cells survive
[1] = compound: CCC1=CN=CN=C1N2CCN(CC2)CC3=NC4=C(N3)C=C(C=C4)C(F)(F)F + CS(=O)(=O)N1CCN(Cc2cc3nc(-c4cccc5[nH]ncc45)nc(N4CCOCC4)c3s2)CC1 [Pictilisib] (partner 1 µM)
Outline: (§1)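 Five library-drug doses in √10 steps were combined with a fixed anchor-drug dose, or a single drug was given alone, by pin tool to lung cancer cell lines in 1536-well plates the day after seeding. Nuclei were stained and counted after 5 days. Relative viability is the nuclei count in treated wells over that in vehicle wells, taken as the median of duplicate plates.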

[2] = compound: N=C1NC(=O)/C(=C/c2ccc(O)cc2)S1 [Mirin] + C[C@]1(O)C[C@@H](c2nc(-c3ccc4ccc(-c5ccccc5)nc4c3)c3c(N)nccn32)C1 [Linsitinib] (partner 1 µM)
Outline: as §1

[3] = compound: N=C1NC(=O)/C(=C/c2ccc(O)cc2)S1 [Mirin] + CC1(C)CCC(c2ccc(Cl)cc2)=C(CN2CCN(c3ccc(C(=O)NS(=O)(=O)c4ccc(N[C@H](CCN5CCOCC5)CSc5ccccc5)c(S(=O)(=O)C(F)(F)F)c4)cc3)CC2)C1 [Navitoclax] (partner 0.5 µM)
Outline: as §1

[4] = compound: CCC1=CN=CN=C1N2CCN(CC2)CC3=NC4=C(N3)C=C(C=C4)C(F)(F)F + CC(=O)c1c(C)c2cnc(Nc3ccc(N4CCNCC4)cn3)nc2n(C2CCCC2)c1=O [Palbociclib] (partner 0.5 µM)
Outline: as §1

| Cell Line | relative viability ([1]; first compound 0.04 µM) | relative viability ([1]; first compound 0.1265 µM) | relative viability ([1]; first compound 0.4 µM) | relative viability ([1]; first compound 1.265 µM) | relative viability ([1]; first compound 4 µM) | relative viability ([2]; first compound 0.25 µM) | relative viability ([2]; first compound 0.7906 µM) | relative viability ([2]; first compound 2.5 µM) | relative viability ([2]; first compound 7.906 µM) | relative viability ([2]; first compound 25 µM) | relative viability ([3]; first compound 0.25 µM) | relative viability ([3]; first compound 0.7906 µM) | relative viability ([3]; first compound 2.5 µM) | relative viability ([3]; first compound 7.906 µM) | relative viability ([3]; first compound 25 µM) | relative viability ([4]; first compound 0.04 µM) | relative viability ([4]; first compound 0.1265 µM) | relative viability ([4]; first compound 0.4 µM) | relative viability ([4]; first compound 4 µM) | relative viability ([4]; first compound 1.265 µM) |
| --- | --- | --- | --- | --- | --- | --- | --- | --- | --- | --- | --- | --- | --- | --- | --- | --- | --- | --- | --- | --- |
| HARA | 0.311 | 0.326 | 0.321 | 0.302 | 0.471 | 0.935 | 0.994 | 0.988 | 1.02 | 0.738 | 1.07 | 1.21 | 1.14 | 1.28 | 1.2 | 0.281 | 0.314 | 0.283 | 0.295 |  |
| NCI-H1944 | 0.361 | 0.335 | 0.325 |  | 0.328 | 1.11 |  | 1.25 | 1.05 | 0.752 | 1.03 |  | 1.07 | 1.08 | 0.861 | 0.399 | 0.358 | 0.298 | 0.303 | 0.309 |
| NCI-H2405 | 0.486 | 0.379 | 0.43 |  | 0.575 | 0.891 | 1 | 0.963 | 0.895 | 0.789 | 0.812 | 0.97 | 0.742 | 0.641 | 0.73 | 0.578 | 0.53 | 0.513 | 0.594 |  |
| 201T | 0.708 | 0.652 | 0.658 | 0.514 | 0.801 | 1 | 1.04 | 1.01 | 1.02 | 1.09 | 1.18 | 1.27 | 1.18 | 1.32 | 1.33 | 0.331 | 0.348 | 0.367 | 0.344 | 0.375 |
| PC-3 [JPC-3] | 0.704 | 0.657 | 0.604 | 0.739 | 0.697 | 1.01 | 1.03 | 0.988 | 1.07 | 1.03 | 0.826 | 0.813 | 0.812 | 0.869 | 0.904 |  | 0.53 | 0.56 | 0.543 | 0.565 |
| NCI-H838 | 0.507 | 0.531 | 0.41 | 0.258 | 0.482 | 1.01 | 1.14 | 1.12 | 1.1 | 0.761 | 1.19 | 1.24 | 1.31 | 1.19 | 1.11 | 0.231 | 0.22 | 0.215 | 0.218 | 0.178 |
| NCI-H1792 | 0.361 | 0.3 | 0.215 | 0.188 | 0.25 | 0.597 | 0.592 | 0.617 | 0.505 | 0.589 | 0.611 | 0.529 | 0.68 | 0.583 | 0.695 | 0.68 | 0.616 | 0.687 | 0.611 | 0.542 |
| COR-L23 | 0.696 | 0.71 | 0.676 | 0.632 | 0.769 | 1.01 | 1.16 | 1.02 | 0.955 | 0.892 | 1.02 | 1.06 | 1.04 | 1.07 | 0.966 | 0.234 | 0.298 | 0.259 | 0.282 | 0.254 |
| HOP-62 | 0.661 | 0.669 | 0.705 | 0.642 | 0.76 | 1.09 | 0.856 | 0.937 |  | 0.866 | 1.03 | 1.02 | 0.955 | 0.888 | 1.43 | 0.475 | 0.451 | 0.414 | 0.413 | 0.438 |
| NCI-H1915 | 0.916 | 0.899 | 0.931 | 0.687 | 0.963 | 1.12 |  | 1.12 | 1.06 | 1.19 | 0.775 |  | 0.76 | 0.743 | 0.866 | 0.478 | 0.525 | 0.515 | 0.522 | 0.451 |
| BEN | 0.593 | 0.557 | 0.503 | 0.343 | 0.331 | 0.821 | 1.37 | 0.973 | 0.809 | 0.502 | 0.0987 | 0.0819 | 0.0674 | 0.0737 | 0.0559 | 0.454 | 0.487 | 0.469 | 0.464 | 0.437 |
| NCI-H1437 | 0.511 | 0.404 | 0.395 | 0.336 | 0.439 | 1.09 | 1.01 | 1.07 | 0.784 | 0.33 | 1.09 | 1.09 | 1.12 | 1.07 | 1.05 | 0.324 | 0.309 | 0.263 | 0.269 | 0.303 |
| EMC-BAC-2 | 0.571 | 0.491 | 0.479 | 0.349 | 0.608 | 0.793 | 0.825 | 0.883 | 0.853 | 0.815 | 1.16 | 1.29 | 1.17 | 1.08 | 1.17 | 0.483 | 0.532 | 0.533 | 0.554 | 0.463 |
| NCI-H2087 | 0.852 | 0.906 | 0.883 | 0.819 | 0.653 | 0.992 | 1.11 | 0.915 | 1.23 | 0.841 | 1.01 | 1.21 | 0.944 | 1.27 | 1.03 | 0.264 | 0.235 | 0.242 | 0.201 | 0.184 |
| LXF-289 | 0.744 | 0.793 | 0.762 | 0.646 | 0.754 | 0.971 | 1.09 | 1 | 1.03 | 1.02 | 0.934 | 0.986 | 0.97 | 1.01 | 1.13 | 0.624 | 0.583 | 0.615 | 0.559 | 0.635 |
| LOU-NH91 | 0.501 | 0.533 | 0.54 | 0.47 | 0.551 | 0.956 |  | 1.01 | 0.936 | 1.04 | 0.681 |  | 0.673 | 0.718 | 0.76 | 0.523 | 0.565 | 0.541 | 0.558 | 0.542 |

From the supplement of paper PMC10307832
